Test results from patent EP4722207A1, “OXOISOINDOLINYL-SUBSTITUTED TETRAHYDROPYRIMIDINEDIONE DERIVATIVE AND USE THEREOF” (Gluetacs Therapeutics (Shanghai) Co., Ltd., priority 2023, dated 2024).

Assays:
H292 = assay: Cell viability assay (CellTiter-Meiluncell Luminescent), tumor cell proliferation, H292; conditions: Homo sapiens, NCI-H292, 96 h; for inhibition at 0.01 µM: read-out: Inhibition Rate at 10 nM (%); for inhibition at 0.5 µM: read-out: Inhibition Rate at 500 nM (%)
MM.1S = assay: Cell viability assay (CellTiter-Meiluncell Luminescent), tumor cell proliferation, MM.1S; conditions: Homo sapiens, MM1.S, 96 h; for inhibition at 0.01 µM: read-out: Inhibition Rate at 10 nM (%); for inhibition at 0.5 µM: read-out: Inhibition Rate at 500 nM (%)
Experimental: The tumor cells used herein were cultured in a cell culture medium listed in table 2 at 37°C in an incubator with 5% CO2. Prior to experimentation, all cell lines used were correctly identified by STR profiling, and tested negative for mycoplasma contamination using a mycoplasma detection kit through routine screenings.
On the following day, the test compounds of the present disclosure were subjected to serial dilution. […] Subsequently, 0.5 µL of the test compound dilution was transferred into the 96-well plate containing the cells, with each well containing 100 µL of cell culture medium. […] Into the 96-well plate, the diluted test compounds and corresponding detection reagents were added, resulting in final test compound concentrations of 500 nM and 10 nM, respectively. The experimental procedure is described below using the diluted 2 µM test compound as an example.
After the cells were treated with the compounds of the present disclosure for a specified period, the cell viability assay reagent was added to the culture medium according to the kit's instructions to determine cell viability. […] All controls were treated using the same procedure as the compounds of the present disclosure. The growth inhibition curves for the compounds of the present disclosure were plotted using Prism GraphPad software, and the IC50 values were calculated therefrom.

MV-4-11 = assay: Cell viability assay (CellTiter-Meiluncell Luminescent), tumor cell proliferation, MV-4-11; conditions: Homo sapiens, MV4-11, 96 h; for inhibition at 0.01 µM: read-out: Inhibition Rate at 10 nM (%); for inhibition at 0.5 µM: read-out: Inhibition Rate at 500 nM (%)
MDA-MB-231 = assay: Cell viability assay (CellTiter-Meiluncell Luminescent), tumor cell proliferation, MDA-MB-231; conditions: Homo sapiens, MDA-MB-231, 96 h; for inhibition at 0.01 µM: read-out: Inhibition Rate at 10 nM (%); for inhibition at 0.5 µM: read-out: Inhibition Rate at 500 nM (%)
WEE1 = molecular target: T1, WEE1 (Homo sapiens, UniProt P30291+Q96SW2); assay: Western-blot assay, substrate protein degradation in hPBMCs: WEE1; type: cell-based; conditions: 24 hours of compound treatment, 50 nM and 500 nM
T1 construct: effects of the compounds of the present disclosure on the expression of target proteins in cells; endogenous in cells; host or cells: human PBMCs (hPBMCs)

IKZF1 = molecular target: T2, IKZF1 (Homo sapiens, UniProt Q13422+Q96SW2); assay: Western-blot assay, substrate protein degradation in hPBMCs: IKZF1; type: cell-based; conditions: 24 hours of compound treatment, 50 nM and 500 nM
T2 construct: effects of the compounds of the present disclosure on the expression of target proteins in cells; endogenous in cells; host or cells: human PBMCs (hPBMCs)

IKZF2 = molecular target: T3, IKZF2 (Homo sapiens, UniProt Q96SW2+Q9UKS7); assay: Western-blot assay, substrate protein degradation in hPBMCs: IKZF2; type: cell-based; conditions: 24 hours of compound treatment, 50 nM and 500 nM
T3 construct: effects of the compounds of the present disclosure on the expression of target proteins in cells; endogenous in cells; host or cells: human PBMCs (hPBMCs)

IKZF3 = molecular target: T4, IKZF3 (Homo sapiens, UniProt Q96SW2+Q9UKT9); assay: Western-blot assay, substrate protein degradation in hPBMCs: IKZF3; type: cell-based; conditions: 24 hours of compound treatment, 50 nM and 500 nM
T4 construct: effects of the compounds of the present disclosure on the expression of target proteins in cells; endogenous in cells; host or cells: human PBMCs (hPBMCs)

CK1α = molecular target: T5, CK1α (Homo sapiens, UniProt P48729+Q96SW2); assay: Western-blot assay, substrate protein degradation in hPBMCs: CK1α; type: cell-based; conditions: 24 hours of compound treatment, 50 nM and 500 nM
T5 construct: effects of the compounds of the present disclosure on the expression of target proteins in cells; endogenous in cells; host or cells: human PBMCs (hPBMCs)

GSPT1 = molecular target: T6, GSPT1 (Homo sapiens, UniProt P15170+Q96SW2); assay: Western-blot assay, substrate protein degradation in hPBMCs: GSPT1; type: cell-based; conditions: 24 hours of compound treatment, 50 nM and 500 nM
T6 construct: effects of the compounds of the present disclosure on the expression of target proteins in cells; endogenous in cells; host or cells: human PBMCs (hPBMCs)

H2228 = assay: Cell viability assay (CellTiter-Meiluncell Luminescent), tumor cell proliferation, H2228; conditions: Homo sapiens, NCI-H2228, 96 h; for inhibition at 0.01 µM: read-out: Inhibition Rate at 10 nM (%); for inhibition at 0.5 µM: read-out: Inhibition Rate at 500 nM (%)

T4 sequence (Q9UKT9 whole entry): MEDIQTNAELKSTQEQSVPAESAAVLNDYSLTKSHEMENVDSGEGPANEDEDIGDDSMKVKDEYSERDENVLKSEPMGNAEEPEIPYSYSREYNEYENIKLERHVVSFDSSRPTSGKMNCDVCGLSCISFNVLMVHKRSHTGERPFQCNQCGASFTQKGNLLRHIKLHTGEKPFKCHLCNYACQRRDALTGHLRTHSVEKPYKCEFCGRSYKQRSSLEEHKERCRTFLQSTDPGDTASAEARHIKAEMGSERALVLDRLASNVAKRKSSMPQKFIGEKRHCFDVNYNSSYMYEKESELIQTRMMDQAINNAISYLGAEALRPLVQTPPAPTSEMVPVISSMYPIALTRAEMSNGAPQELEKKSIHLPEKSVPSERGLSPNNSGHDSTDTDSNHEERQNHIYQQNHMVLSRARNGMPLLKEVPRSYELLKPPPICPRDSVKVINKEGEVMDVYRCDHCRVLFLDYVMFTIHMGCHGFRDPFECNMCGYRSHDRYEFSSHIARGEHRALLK
T4 sequence (Q96SW2 whole entry): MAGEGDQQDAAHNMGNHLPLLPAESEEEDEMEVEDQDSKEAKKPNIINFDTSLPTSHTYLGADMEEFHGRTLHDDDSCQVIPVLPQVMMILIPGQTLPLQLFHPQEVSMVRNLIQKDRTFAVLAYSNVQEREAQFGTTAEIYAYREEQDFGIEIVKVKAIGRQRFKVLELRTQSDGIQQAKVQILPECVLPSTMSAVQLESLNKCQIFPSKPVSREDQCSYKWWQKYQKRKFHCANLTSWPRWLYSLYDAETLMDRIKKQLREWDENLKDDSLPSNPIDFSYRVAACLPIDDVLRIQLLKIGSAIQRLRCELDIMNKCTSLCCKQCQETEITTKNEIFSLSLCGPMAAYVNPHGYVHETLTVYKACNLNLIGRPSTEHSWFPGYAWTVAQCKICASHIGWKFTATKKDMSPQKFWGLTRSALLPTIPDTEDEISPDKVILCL
T4 sequence (Q16531 whole entry partner): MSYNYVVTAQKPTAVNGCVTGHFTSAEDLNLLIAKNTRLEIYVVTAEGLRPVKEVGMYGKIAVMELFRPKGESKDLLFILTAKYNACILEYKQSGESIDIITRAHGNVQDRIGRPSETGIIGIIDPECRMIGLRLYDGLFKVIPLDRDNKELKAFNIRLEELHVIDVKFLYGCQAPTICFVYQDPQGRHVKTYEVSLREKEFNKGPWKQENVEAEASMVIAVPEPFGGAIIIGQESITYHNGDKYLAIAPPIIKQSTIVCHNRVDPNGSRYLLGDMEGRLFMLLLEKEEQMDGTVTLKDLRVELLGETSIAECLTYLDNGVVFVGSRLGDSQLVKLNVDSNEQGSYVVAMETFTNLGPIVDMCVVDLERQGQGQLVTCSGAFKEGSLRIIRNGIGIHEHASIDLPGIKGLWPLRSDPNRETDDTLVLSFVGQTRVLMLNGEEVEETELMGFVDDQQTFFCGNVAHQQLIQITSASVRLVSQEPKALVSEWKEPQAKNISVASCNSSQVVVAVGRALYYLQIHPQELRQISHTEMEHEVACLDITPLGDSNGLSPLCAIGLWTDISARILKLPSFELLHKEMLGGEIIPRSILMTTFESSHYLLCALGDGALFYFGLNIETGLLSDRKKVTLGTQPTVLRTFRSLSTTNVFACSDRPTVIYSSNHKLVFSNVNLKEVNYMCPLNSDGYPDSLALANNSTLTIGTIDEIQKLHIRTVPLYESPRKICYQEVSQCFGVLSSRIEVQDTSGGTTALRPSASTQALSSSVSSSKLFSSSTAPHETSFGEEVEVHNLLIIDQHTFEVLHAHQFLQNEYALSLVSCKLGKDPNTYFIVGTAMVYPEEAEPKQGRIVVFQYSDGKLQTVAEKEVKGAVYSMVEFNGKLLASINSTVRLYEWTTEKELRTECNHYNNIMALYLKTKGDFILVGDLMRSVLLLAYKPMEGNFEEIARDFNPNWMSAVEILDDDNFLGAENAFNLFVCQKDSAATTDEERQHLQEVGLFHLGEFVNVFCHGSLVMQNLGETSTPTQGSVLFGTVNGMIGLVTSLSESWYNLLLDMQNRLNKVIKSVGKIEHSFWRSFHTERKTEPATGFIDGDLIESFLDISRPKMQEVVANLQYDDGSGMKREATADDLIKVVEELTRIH
T3 sequence (Q9UKS7 whole entry): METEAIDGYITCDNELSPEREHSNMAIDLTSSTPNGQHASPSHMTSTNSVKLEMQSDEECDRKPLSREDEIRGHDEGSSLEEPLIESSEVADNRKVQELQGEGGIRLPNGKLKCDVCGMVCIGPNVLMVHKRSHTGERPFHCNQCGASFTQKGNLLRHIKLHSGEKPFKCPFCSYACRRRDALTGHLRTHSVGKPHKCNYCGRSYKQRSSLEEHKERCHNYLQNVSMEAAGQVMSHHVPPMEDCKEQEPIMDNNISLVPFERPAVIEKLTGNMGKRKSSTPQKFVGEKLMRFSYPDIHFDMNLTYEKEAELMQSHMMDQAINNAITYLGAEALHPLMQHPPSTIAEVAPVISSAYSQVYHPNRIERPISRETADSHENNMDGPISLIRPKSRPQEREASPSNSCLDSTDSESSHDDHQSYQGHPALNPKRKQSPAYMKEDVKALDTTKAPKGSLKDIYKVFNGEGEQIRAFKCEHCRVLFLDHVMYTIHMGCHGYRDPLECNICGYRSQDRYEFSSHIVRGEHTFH
T3 sequence (Q96SW2 whole entry): as the sequence (Q96SW2 whole entry) above
T3 sequence (Q16531 whole entry partner): as the sequence (Q16531 whole entry partner) above
T1 sequence (P30291 whole entry): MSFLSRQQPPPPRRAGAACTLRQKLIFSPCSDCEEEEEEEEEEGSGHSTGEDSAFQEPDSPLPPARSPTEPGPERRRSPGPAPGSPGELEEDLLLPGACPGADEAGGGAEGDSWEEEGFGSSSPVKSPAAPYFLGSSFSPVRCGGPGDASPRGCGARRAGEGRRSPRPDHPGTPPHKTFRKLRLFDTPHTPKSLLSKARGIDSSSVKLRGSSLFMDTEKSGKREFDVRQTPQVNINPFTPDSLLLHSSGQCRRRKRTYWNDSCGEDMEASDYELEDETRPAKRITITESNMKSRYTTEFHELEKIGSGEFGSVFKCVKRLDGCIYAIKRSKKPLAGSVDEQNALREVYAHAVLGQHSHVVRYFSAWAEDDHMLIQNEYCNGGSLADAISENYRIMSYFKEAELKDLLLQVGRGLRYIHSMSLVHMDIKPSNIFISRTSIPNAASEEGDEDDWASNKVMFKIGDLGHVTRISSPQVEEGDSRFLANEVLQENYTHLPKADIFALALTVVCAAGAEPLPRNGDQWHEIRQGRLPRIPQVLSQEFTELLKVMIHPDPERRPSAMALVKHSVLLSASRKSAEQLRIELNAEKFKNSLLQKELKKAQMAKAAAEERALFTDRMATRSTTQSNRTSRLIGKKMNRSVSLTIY
T1 sequence (Q96SW2 whole entry): as the sequence (Q96SW2 whole entry) above
T1 sequence (Q16531 whole entry partner): as the sequence (Q16531 whole entry partner) above
T6 sequence (P15170 whole entry): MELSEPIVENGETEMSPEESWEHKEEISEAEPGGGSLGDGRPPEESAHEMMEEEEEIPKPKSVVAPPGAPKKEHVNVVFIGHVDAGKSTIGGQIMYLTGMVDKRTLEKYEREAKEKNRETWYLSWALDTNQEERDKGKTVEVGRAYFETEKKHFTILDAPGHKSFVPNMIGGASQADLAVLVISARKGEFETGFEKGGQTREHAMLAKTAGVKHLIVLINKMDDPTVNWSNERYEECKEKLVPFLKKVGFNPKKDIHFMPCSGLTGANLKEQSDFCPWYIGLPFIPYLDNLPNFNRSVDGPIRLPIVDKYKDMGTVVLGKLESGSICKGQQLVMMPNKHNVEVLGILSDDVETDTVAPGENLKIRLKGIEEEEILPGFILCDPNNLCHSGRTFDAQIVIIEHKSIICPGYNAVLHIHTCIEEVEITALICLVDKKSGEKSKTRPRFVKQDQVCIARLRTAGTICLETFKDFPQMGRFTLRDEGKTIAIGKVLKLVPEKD
T6 sequence (Q96SW2 whole entry): as the sequence (Q96SW2 whole entry) above
T6 sequence (Q16531 whole entry partner): as the sequence (Q16531 whole entry partner) above
T2 sequence (Q13422 whole entry): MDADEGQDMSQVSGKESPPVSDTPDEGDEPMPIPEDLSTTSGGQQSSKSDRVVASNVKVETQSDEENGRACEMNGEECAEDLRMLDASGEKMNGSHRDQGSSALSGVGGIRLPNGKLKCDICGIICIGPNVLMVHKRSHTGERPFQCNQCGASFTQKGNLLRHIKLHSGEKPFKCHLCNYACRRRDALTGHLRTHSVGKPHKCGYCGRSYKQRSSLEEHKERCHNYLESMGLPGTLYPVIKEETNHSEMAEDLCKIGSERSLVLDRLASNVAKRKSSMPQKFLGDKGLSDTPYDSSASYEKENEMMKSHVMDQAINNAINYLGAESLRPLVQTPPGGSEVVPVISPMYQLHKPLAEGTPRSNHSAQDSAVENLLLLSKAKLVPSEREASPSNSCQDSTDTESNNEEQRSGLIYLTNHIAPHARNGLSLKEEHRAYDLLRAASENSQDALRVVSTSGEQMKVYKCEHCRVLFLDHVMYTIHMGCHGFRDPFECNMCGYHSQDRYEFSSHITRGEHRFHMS
T2 sequence (Q96SW2 whole entry): as the sequence (Q96SW2 whole entry) above
T2 sequence (Q16531 whole entry partner): as the sequence (Q16531 whole entry partner) above

Row | SMILES | inhibition at 0.01 µM (H292) | inhibition at 0.5 µM (H292) | inhibition at 0.01 µM (MM.1S) | inhibition at 0.5 µM (MM.1S) | inhibition at 0.01 µM (MV-4-11) | inhibition at 0.5 µM (MV-4-11) | inhibition at 0.01 µM (MDA-MB-231) | inhibition at 0.5 µM (MDA-MB-231) | substrate protein remaining % WEE1 (WEE1) | substrate protein remaining % IKZF1 (IKZF1) | substrate protein remaining % IKZF2 (IKZF2) | substrate protein remaining % IKZF3 (IKZF3) | substrate protein remaining % CK1α (CK1α) | substrate protein remaining % GSPT1 (GSPT1) | inhibition at 0.01 µM (H2228) | inhibition at 0.5 µM (H2228)
1 | O=C1CCN(N2Cc3cc(CN4CC=C(c5ncnc6sc7c(c56)CCCC7)CC4)ccc3C2=O)C(=O)N1 [GT-08178, 1-(1-oxo-5-((4-(5,6,7,8-tetrahydrobenzo[4,5]thieno[2,3-d]pyrimidin-4-yl)-3,6-dihydropyridin-1(2H)-yl)methyl)isoindolin-2-yl)dihydropyrimidine-2,4(1H,3H)-dione] | 40 to 60% | 20 to 40% | 60 to 80% | 60 to 80% | 60 to 80% | 80 to 100% | 18 to 25% | 18 to 25% |  |  |  |  |  |  |  | 
2 | CC(C)c1cc2c(N3CCN(Cc4ccc5c(c4)C(=O)N(N4CCC(=O)NC4=O)C5=O)CC3)ncnc2s1 [GT-08093, 2-(2,4-dioxotetrahydropyrimidin-1(2H)-yl)-5-((4-(6-isopropylthieno[2,3-d]pyrimidin-4-yl)piperazin-1-yl)methyl)isoindoline-1,3-dione] | 15 to 20% | 15 to 20% |  |  | 40 to 60% | 60 to 80% |  |  | A (0% ≤ substrate protein remaining % ≤ 80%) | B (80%< substrate protein remaining %≤ 100%) | B (80%< substrate protein remaining %≤ 100%) | B (80%< substrate protein remaining %≤ 100%) | A (0% ≤ substrate protein remaining % ≤ 80%) | A (0% ≤ substrate protein remaining % ≤ 80%) | 20 to 25% | 20 to 25%
3 | Cc1nc(N2CCN(Cc3ccc4c(c3)C(=O)N(N3CCC(=O)NC3=O)C4=O)CC2)c2c3c(sc2n1)CCC3 [GT-08104, 2-(2,4-dioxotetrahydropyrimidin-1(2H)-yl)-5-((4-(2-methyl-6,7-dihydro-5H-cyclopenta[4,5]thieno[2,3-d]pyrimidin-4-yl)piperazin-1-yl)methyl)isoindoline-1,3-dione] |  |  | 20 to 30% | 30 to 42% | 40 to 60% | 40 to 60% |  |  | A (0% ≤ substrate protein remaining % ≤ 80%) | B (80%< substrate protein remaining %≤ 100%) | A (0% ≤ substrate protein remaining % ≤ 80%) | A (0% ≤ substrate protein remaining % ≤ 80%) | B (80%< substrate protein remaining %≤ 100%) | A (0% ≤ substrate protein remaining % ≤ 80%) |  | 
4 | O=C1CCN(N2C(=O)c3ccc(CN4CCN(c5ncnc6scc(-c7ccccc7)c56)CC4)cc3C2=O)C(=O)N1 [GT-08098, 2-(2,4-dioxotetrahydropyrimidin-1(2H)-yl)-5-((4-(5-phenylthieno[2,3-d]pyrimidin-4-yl)piperazin-1-yl)methyl)isoindoline-1,3-dione] |  |  |  |  | 18 to 25% | 18 to 25% |  |  | B (80%< substrate protein remaining %≤ 100%) | B (80%< substrate protein remaining %≤ 100%) | B (80%< substrate protein remaining %≤ 100%) | B (80%< substrate protein remaining %≤ 100%) | B (80%< substrate protein remaining %≤ 100%) | A (0% ≤ substrate protein remaining % ≤ 80%) | 10 to 15% | 25 to 30%
5 | Cc1cc2c(C3=CCN(Cc4ccc5c(c4)CN(N4CCC(=O)NC4=O)C5=O)CC3)ncnc2s1 [GT-08157, 1-(5-((4-(6-methylthieno[2,3-d]pyrimidin-4-yl)-3,6-dihydropyridin-1(2H)-yl)methyl)-1-oxoisoindolin-2-yl)dihydropyrimidine-2,4(1H,3H)-dione] | 20 to 40% | 15 to 20% | -5 to 0% | 80 to 100% | 18 to 25% | 80 to 100% | 15 to 18% | 25 to 40% |  |  |  |  |  |  |  | 
